The test system of one assay is HCV replicon genotype 1b. Nature of the assay: microbe, parasite or virus in culture. The class given is cell-based. Particulars: Hepatitis C virus, 96 h, HCV genotype 1b replicon cells, 96 hours incubation, NS3/4A ELISA readout. For orientation: A replicon is a self-replicating genome or part of one, used to study replication in cells.
The next assay relates to HCV replicon genotype 1a. Nature of the assay: microbe, parasite or virus in culture. To be noted: Hepatitis C virus, 96 h, HCV genotype 1a replicon cells, 96 hours incubation, NS3/4A ELISA readout. The class given is cell-based.

Among the data in US20150246902A1, “SUBSTITUED BENZOFURAN COMPOUNDS AND METHODS OF USE THEREOF FOR THE TREATMENT OF VIRAL DISEASES” (priority 2011, published 2015) are IC50 values, retold here.

For orientation: IC50 means the concentration at which inhibition is half-maximal.

Regarding `CNC(=O)c1c(-c2ccc(F)cc2)oc2cc(N(C)S(C)(=O)=O)c(-c3cc(F)c4nc(C)n(-c5ccc(F)c(C#N)c5)c4c3)cc12` [Compound 32], the figures for the IC50 in the assay on HCV replicon genotype 1b and with HCV replicon genotype 1a were 0.0031 µM and 0.0053 µM, respectively.
The like results for `CNC(=O)c1c(-c2ccc(F)cc2)oc2cc(N(C)S(C)(=O)=O)c(-c3ccc4nc(-c5ccccc5)cn4c3)cc12` [Compound 88, 2-(4-fluorophenyl)-N-methyl-6-(N-methylmethylsulfonamido)-5-(2-phenylimidazo[1,2-a]pyridin-6-yl)benzofuran-3-carboxamide] were, in that order, 0.007 µM and 0.0501 µM.
Take `CNC(=O)c1c(-c2ccc(F)cc2)oc2cc(N(C)S(C)(=O)=O)c(-c3ccc4ncn(-c5ccccc5C(F)(F)F)c4c3)cc12` [Compound 9]: the 50% inhibitory concentration (IC50) in the assay with HCV replicon genotype 1b was found to be 0.0071 µM; in the assay with HCV replicon genotype 1a, 0.0758 µM.
The matching figures for `CNC(=O)c1c(-c2ccc(F)cc2)oc2cc(N(C)S(C)(=O)=O)c(-c3ccc4c(ccn4-c4ccc(F)cc4)c3)cc12` [Compound 54]: 0.0141 µM and 0.109 µM.
The like results for `CNC(=O)c1c(-c2ccc(F)cc2)oc2cc(N(C)S(C)(=O)=O)c(-c3cc(F)c4ncn(-c5ccccc5)c4c3)cc12` [Compound 20] were, in that order, 0.0024 µM and 0.0061 µM.
The matching figures for `CNC(=O)c1c(-c2ccc(F)cc2)oc2cc(N(C)S(C)(=O)=O)c(-c3cc(F)c4nc(C)n(-c5ccc(F)c(C(N)=O)c5)c4c3)cc12` [Compound 109, 5-(1-(3-carbamoyl-4-fluorophenyl)-4-fluoro-2-methyl-1H-benzo[d]imidazol-6-yl)-2-(4-fluorophenyl)-N-methyl-6-(N-methylmethylsulfonamido)benzofuran-3-carboxamide]: 0.0211 µM and 0.11 µM.
In the case of `CNC(=O)c1c(-c2ccc(F)cc2)oc2cc(N(C)S(C)(=O)=O)c(-c3ccc4ncn(C5CCOCC5)c4c3)cc12` [Compound 26], the IC50 with HCV replicon genotype 1b was 0.012 µM; in the assay on HCV replicon genotype 1a, 0.0647 µM.
As for `CNC(=O)c1c(-c2ccc(F)cc2)oc2cc(N(C)S(C)(=O)=O)c(-c3ccc4ncn(C5CCCNC5)c4c3)cc12` (centres unmarked) [Compound 25], the IC50 amounted to 0.0511 µM in the assay with HCV replicon genotype 1b and 0.585 µM with HCV replicon genotype 1a.
The like results for `CNC(=O)c1c(-c2ccc(F)cc2)oc2cc(N(C)S(C)(=O)=O)c(-c3ccc4[nH]cc(-c5ccncc5)c4c3)cc12` [Compound 71] were, in that order, 0.0045 µM and 0.0215 µM.
With `CNC(=O)c1c(-c2ccc(F)cc2)oc2cc(N(C)S(C)(=O)=O)c(-c3ccc4nnc(-c5ccc(F)cc5)n4c3)cc12` [Compound 111, 2-(4-fluorophenyl)-5-(3-(4-fluorophenyl)-[1,2,4]triazolo[4,3-a]pyridin-6-yl)-N-methyl-6-(N-methylmethylsulfonamido)benzofuran-3-carboxamide], the values for the IC50 with HCV replicon genotype 1b and in the assay on HCV replicon genotype 1a were 0.0019 µM and 0.0048 µM, respectively.
Consider `CNC(=O)c1c(-c2ccc(F)cc2)oc2cc(N(C)S(C)(=O)=O)c(-c3ccc4ncn(-c5ccc(OC)cc5)c4c3)cc12` [Compound 1, 2-(4-fluorophenyl)-5-(1-(4-methoxyphenyl)-1H-benzo[d]imidazol-6-yl)-N-methyl-6-(N-methylmethylsulfonamido)benzofuran-3-carboxamide], for which the figures for the IC50 in the assay on HCV replicon genotype 1b and with HCV replicon genotype 1a were 0.0046 µM and 0.0165 µM, respectively.
With `CNC(=O)c1c(-c2ccc(F)cc2)oc2cc(N(C)S(C)(=O)=O)c(-c3cc(OC)c4nc(N)n(-c5cc(F)cc(F)c5)c4c3)cc12` [Compound 78, 5-(2-amino-1-(3,5-difluorophenyl)-4-methoxy-1H-benzo[d]imidazol-6-yl)-2-(4-fluorophenyl)-N-methyl-6-(N-methylmethylsulfonamido)benzofuran-3-carboxamide], the half-maximal inhibitory concentration (IC50) in the assay with HCV replicon genotype 1b amounted to 0.0053 µM; with HCV replicon genotype 1a, 0.019 µM.
The like results for `CNC(=O)c1c(-c2ccc(F)cc2)oc2cc(N(C)S(C)(=O)=O)c(-c3ccc4ccn(-c5cccc(F)c5)c4c3)cc12` [Compound 60] were, in that order, 0.0044 µM and 0.0454 µM.
The matching figures for `CNC(=O)c1c(-c2ccc(F)cc2)oc2cc(N(C)S(C)(=O)=O)c(-c3ccc4[nH]ccc4c3)cc12` [Compound 62]: 0.0229 µM and 0.183 µM.
The like results for `CNC(=O)c1c(-c2ccc(F)cc2)oc2cc(N(C)S(C)(=O)=O)c(-c3ccc4c(ccn4-c4ccccc4)c3)cc12` [Compound 53] were, in that order, 0.0125 µM and 0.082 µM.
For the compound `CNC(=O)c1c(-c2ccc(F)cc2)oc2cc(N(C)S(C)(=O)=O)c(-c3ccc4onc(-c5ccccc5)c4c3)cc12` [Compound 83, 2-(4-fluorophenyl)-N-methyl-6-(N-methylmethylsulfonamido)-5-(3-phenylbenzo[d]isoxazol-5-yl)benzofuran-3-carboxamide], the IC50 in the assay on HCV replicon genotype 1b came out at 0.0147 µM; with HCV replicon genotype 1a, 0.0236 µM.
The like results for `CNC(=O)c1c(-c2ccc(F)cc2)oc2cc(N(C)S(C)(=O)=O)c(-c3cc(-c4cc5ccccc5[nH]4)c4nc(C)cn4c3)cc12` [Compound 99, 5-(8-(1H-indol-2-yl)-2-methylimidazo[1,2-a]pyridin-6-yl)-2-(4-fluorophenyl)-N-methyl-6-(N-methylmethylsulfonamido)benzofuran-3-carboxamide] were, in that order, 0.0052 µM and 0.0031 µM.
Turning to `CNC(=O)c1c(-c2ccc(F)cc2)oc2cc(N(C)S(C)(=O)=O)c(-c3ccc4cnn(-c5ccc(F)cc5)c4c3)cc12` [Compound 105, 2-(4-fluorophenyl)-5-(1-(4-fluorophenyl)-1H-indazol-6-yl)-N-methyl-6-(N-methylmethylsulfonamido)benzofuran-3-carboxamide], the half-inhibitory concentration (IC50) is 0.0028 µM in the assay on HCV replicon genotype 1b and 0.0052 µM in the assay on HCV replicon genotype 1a.
On to `CNC(=O)c1c(-c2ccc(F)cc2)oc2cc(N(C)S(C)(=O)=O)c(-c3cn4c(-c5ccc(F)cc5)cnc4cn3)cc12` [Compound 91, 2-(4-fluorophenyl)-5-(3-(4-fluorophenyl)imidazo[1,2-a]pyrazin-6-yl)-N-methyl-6-(N-methylmethylsulfonamido)benzofuran-3-carboxamide], for which the figures for the IC50 in the assay on HCV replicon genotype 1b and with HCV replicon genotype 1a were 0.0081 µM and 0.0482 µM, respectively.
On to `CNC(=O)c1c(-c2ccc(F)cc2)oc2cc(N(C)S(C)(=O)=O)c(-c3cc(F)c4ncn(-c5cc(F)c(F)c(F)c5)c4c3)cc12` [Compound 31], for which the figures for the IC50 with HCV replicon genotype 1b and in the assay with HCV replicon genotype 1a were 0.0031 µM and 0.0034 µM, respectively.
The like results for `CNC(=O)c1c(-c2ccc(F)cc2)oc2cc(N(C)S(C)(=O)=O)c(-c3ccc4ncn(-c5ccc(S(C)(=O)=O)cc5)c4c3)cc12` [Compound 13] were, in that order, 0.0038 µM and 0.0182 µM.
The matching figures for `CNC(=O)c1c(-c2ccc(F)cc2)oc2cc(N(C)S(C)(=O)=O)c(-c3cc(F)c4nc(N)n(-c5cc(F)cc(F)c5)c4c3)cc12` [Compound 79]: 0.0031 µM and 0.0314 µM.
Turning to `CNC(=O)c1c(-c2ccc(F)cc2)oc2cc(N(C)S(C)(=O)=O)c(-c3cc(F)c4ncn(-c5ccc(F)cc5)c4c3)cc12` [Compound 28], the IC50 in the assay with HCV replicon genotype 1b is 0.0033 µM; with HCV replicon genotype 1a it was 0.0042 µM.
The matching figures for `CNC(=O)c1c(-c2ccc(F)cc2)oc2cc(N(C)S(C)(=O)=O)c(-c3ccc4c(ccn4-c4cccc(F)c4)c3)cc12` [Compound 55]: 0.0238 µM and 0.152 µM.
As for `CNC(=O)c1c(-c2ccc(F)cc2)oc2cc(N(C)S(C)(=O)=O)c(-c3ccc4ncn(-c5cc(F)cc(F)c5)c4n3)cc12` [Compound 43], the IC50 in the assay with HCV replicon genotype 1b was 0.0173 µM; in the assay on HCV replicon genotype 1a it was 0.158 µM.
The matching figures for `CNC(=O)c1c(-c2ccc(F)cc2)oc2cc(N(C)S(C)(=O)=O)c(-c3ccc4nc(C)n(-c5ccc(F)cc5)c4c3)cc12` [Compound 19]: 0.0022 µM and 0.0128 µM.
The like results for `CNC(=O)c1c(-c2ccc(F)cc2)oc2cc(N(C)S(C)(=O)=O)c(-c3ccc4ncn(-c5ccc(Cl)cc5)c4c3)cc12` [Compound 10] were, in that order, 0.0036 µM and 0.004 µM.
As for `CNC(=O)c1c(-c2ccc(F)cc2)oc2cc(N(C)S(C)(=O)=O)c(-c3ccc4ccn(-c5ccc(F)cc5)c4c3)cc12` [Compound 59], the IC50 in the assay on HCV replicon genotype 1b came to 0.0052 µM; with HCV replicon genotype 1a it was 0.0153 µM.
The matching figures for `CNC(=O)c1c(-c2ccc(F)cc2)oc2cc(N(C)S(C)(=O)=O)c(-c3cc(OC)c4nc(C)n(-c5ccc(F)cc5)c4c3)cc12` [Compound 33]: 0.0088 µM and 0.0137 µM.
The matching figures for `CNC(=O)c1c(-c2ccc(F)cc2)oc2cc(N(C)S(C)(=O)=O)c(-c3cnc4ccn(-c5ccc(C(F)(F)F)cc5)c4c3)cc12` [Compound 48]: 0.0033 µM and 0.0026 µM.
The matching figures for `CNC(=O)c1c(-c2ccc(F)cc2)oc2cc(N(C)S(C)(=O)=O)c(-c3ccc4cnn(-c5ccc(C#N)cc5)c4c3)cc12` [Compound 108]: 0.0123 µM and 0.0276 µM.
`CNC(=O)c1c(-c2ccc(F)cc2)oc2cc(N(C)S(C)(=O)=O)c(-c3ncc4ncn(-c5ccc(OC(F)(F)F)cc5)c4n3)cc12` [Compound 39, 2-(4-fluorophenyl)-N-methyl-6-(N-methylmethylsulfonamido)-5-(9-(4-(trifluoromethoxy)phenyl)-9H-purin-2-yl)benzofuran-3-carboxamide]: the concentration for half-maximal inhibition (IC50) stood at 0.0824 µM in the assay on HCV replicon genotype 1b and 1.82 µM with HCV replicon genotype 1a.
The like results for `CNC(=O)c1c(-c2ccc(F)cc2)oc2cc(N(C)S(C)(=O)=O)c(-c3ccc4[nH]nc(-c5ccc(F)cc5)c4c3)cc12` [Compound 73, 2-(4-fluorophenyl)-5-(3-(4-fluorophenyl)-1H-indazol-5-yl)-N-methyl-6-(N-methylmethylsulfonamido)benzofuran-3-carboxamide] were, in that order, 0.0038 µM and 0.0039 µM.
The matching figures for `CNC(=O)c1c(-c2ccc(F)cc2)oc2cc(N3CCCC3=O)c(-c3ccc4ncn(-c5ccccc5)c4c3)cc12` [Compound 77, 2-(4-fluorophenyl)-N-methyl-6-(2-oxopyrrolidin-1-yl)-5-(1-phenyl-1H-benzo[d]imidazol-6-yl)benzofuran-3-carboxamide]: 0.0326 µM and 0.235 µM.
